For one test, the target named is T1, Cbl (aa49-434) (Homo sapiens, UniProt P22681).
T1 construct: Cbl (aa49-434, in-house); made in house
T1 sequence (P22681 49-434): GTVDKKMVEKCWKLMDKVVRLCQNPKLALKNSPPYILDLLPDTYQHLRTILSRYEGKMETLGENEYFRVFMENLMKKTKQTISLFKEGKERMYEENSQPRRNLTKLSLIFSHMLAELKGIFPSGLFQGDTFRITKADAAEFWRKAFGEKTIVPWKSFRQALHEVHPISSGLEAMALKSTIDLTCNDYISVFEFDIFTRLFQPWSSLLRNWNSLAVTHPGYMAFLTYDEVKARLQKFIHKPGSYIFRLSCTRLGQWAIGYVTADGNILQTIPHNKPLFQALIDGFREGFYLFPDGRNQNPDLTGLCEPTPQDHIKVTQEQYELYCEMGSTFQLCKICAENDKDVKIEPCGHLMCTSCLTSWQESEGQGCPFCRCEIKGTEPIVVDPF
Nature of the test: Co-expressed Cbl with BirA biochemical assay (CBL/E2-Ub binding, HTRF). Conditions: 0.6 nM Cbl co-expressed with BirA, read-out: co-express CBL/E2-Ub-binding assay IC50. The source says: (§1) The assay in the absence of a Cbl-b/Cbl inhibitor, where phosphorylation of Cbl-b/Cbl by the Src kinase allows UbcH5B-Ub to bind to Cbl-b/Cbl and brings the Bodipy-Fluorescein tagged ubiquitin in proximity to the streptavidin-terbium bound to the N-terminal biotinylated Avi-tagged Cbl-b/Cbl. […] The lack of a FRET signal indicates Cbl-b/Cbl is inhibited by the Cbl-b/Cbl inhibitor.

For a further test, the target named is T2, Cbl-b (aa36-427) (Homo sapiens, UniProt Q13191).
T2 construct: Cbl-b (aa36-427, in-house); made in house
Description: Co-expressed Cbl-b with BirA biochemical assay (CBLB/E2-Ub binding, HTRF). As to conditions: 0.6 nM Cbl-b co-expressed with BirA, HTRF; read-out: co-express CBLB/E2-Ub-binding assay IC50.
Description: as §1
On the technique in general: TR-FRET usually uses a lanthanide donor and a delayed reading to cut background.

SMILES strings stand for the structures.

T2 sequence (Q13191 36-427): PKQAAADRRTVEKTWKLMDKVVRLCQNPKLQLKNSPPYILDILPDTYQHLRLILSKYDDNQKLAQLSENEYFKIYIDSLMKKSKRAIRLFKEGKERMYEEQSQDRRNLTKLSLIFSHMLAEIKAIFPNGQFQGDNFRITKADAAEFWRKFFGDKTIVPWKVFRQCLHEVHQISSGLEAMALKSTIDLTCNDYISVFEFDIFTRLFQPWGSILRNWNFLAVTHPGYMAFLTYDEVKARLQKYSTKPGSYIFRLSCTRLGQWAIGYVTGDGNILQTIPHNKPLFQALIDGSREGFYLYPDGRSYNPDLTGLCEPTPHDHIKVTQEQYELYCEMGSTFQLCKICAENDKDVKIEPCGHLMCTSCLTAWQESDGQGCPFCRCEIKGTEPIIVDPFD

In the case of `Cn1cnnc1[C@]1(c2cccc(NC(=O)c3cc(CNC4(C)CCC4)c4ccsc4n3)c2)C[C@H](CC#N)C1` [Compound B39, 4-{[(1-methylcyclobutyl)amino]methyl}-N-{3-[(1s, 3s)-3-(cyanomethyl)-1-(4-methyl-1,2,4-triazol-3-yl)cyclobutyl]phenyl}thieno[2,3-b]pyridine-6-carboxamide], the values for the IC50 on Cbl (aa49-434) and at Cbl-b (aa36-427) were 8.8 nM and 0.8 nM, respectively.
Regarding `Cn1cnnc1C[C@]1(c2cccc(NC(=O)c3cc(CNC4CCCCC4)c4c(n3)C(C)(C)CO4)c2)C[C@H](C#N)C1` [Compound C48, N-(3-((1r, 3r)-3-cyano-1-((4-methyl-4H-1,2,4-triazol-3-yl)methyl)cyclobutyl)phenyl)-7-((cyclohexylamino)methyl)-3,3-dimethyl-2,3-dihydrofuro[3,2-b]pyridine-5-carboxamide], the IC50 on Cbl (aa49-434) worked out at 6.3 nM; at Cbl-b (aa36-427), 2.7 nM.
`Cn1cnnc1[C@]1(c2cncc(NC(=O)c3cc(CNC4(C)CC4)c4ccsc4n3)c2)C[C@H](C)C1` [Compound B51, N-(5-((1s, 3s)-3-methyl-1-(4-methyl-4H-1,2,4-triazol-3-yl)cyclobutyl)pyridin-3-yl)-4-(((1-methylcyclopropyl)amino)methyl)thieno[2,3-b]pyridine-6-carboxamide]: the IC50 on Cbl (aa49-434) was found to be 13 nM; at Cbl-b (aa36-427), 1.4 nM.
Consider `Cn1cnnc1[C@]1(c2cccc(NC(=O)c3cc(CNC4(C)CCC4)c4[nH]ccc4n3)c2)C[C@H](CC#N)C1` [Compound B27, N-(3-((1s, 3s)-3-(cyanomethyl)-1-(4-methyl-4H-1,2,4-triazol-3-yl)cyclobutyl)phenyl)-7-(((1-methylcyclobutyl)amino)methyl)-1H-pyrrolo[3,2-b]pyridine-5-carboxamide], for which the IC50 on Cbl (aa49-434) was found to be 8.4 nM; on Cbl-b (aa36-427) it was 1.2 nM.
On to `Cn1cnnc1[C@]1(c2cccc(NC(=O)c3cc(CNCC4CCC4)cn4ccnc34)c2)C[C@H](C)C1` [Compound A22, 6-(((cyclobutylmethyl)amino)methyl)-N-(3-((1s, 3s)-3-methyl-1-(4-methyl-4H-1,2,4-triazol-3-yl)cyclobutyl)phenyl)imidazo[1,2-a]pyridine-8-carboxamide], for which the IC50 turned out to be 3.6 nM at Cbl (aa49-434) and 1.1 nM on Cbl-b (aa36-427).
On the same counts, the results for `Cc1cnc2c(C(=O)Nc3cncc([C@]4(c5nncn5C)C[C@@H](C)C4)c3)cc(CN[C@@H](C)C3CCC3)cn12` [Compound A63, 6-({[(1S)-1-cyclobutylethyl]amino}methyl)-3-methyl-N-{5-[(1r, 3s)-3-methyl-1-(4-methyl-1,2,4-triazol-3-yl)cyclobutyl]pyridin-3-yl}imidazo[1,2-a]pyridine-8-carboxamide] are 1.8 nM and 1.1 nM.
Consider `C[C@H](NCc1cc(C(=O)Nc2cccc([C@]3(c4nncn4C)C[C@@H](CC#N)C3)c2)c2nccn2c1)C1CC1` [Compound A27, N-(3-((1s,3R)-3-(cyanomethyl)-1-(4-methyl-4H-1,2,4-triazol-3-yl)cyclobutyl)phenyl)-6-((((S)-1-cyclopropylethyl)amino)methyl)imidazo[1,2-a]pyridine-8-carboxamide], for which the figures for the IC50 on Cbl (aa49-434) and at Cbl-b (aa36-427) were 8 nM and 1.4 nM, respectively.
With `Cc1c[nH]c2c(CNC3(C)CC3)cc(C(=O)Nc3cccc([C@]4(c5nncn5C)C[C@@H](CC#N)C4)c3)nc12` [Compound B30, N-(3-((1s, 3s)-3-(cyanomethyl)-1-(4-methyl-4H-1,2,4-triazol-3-yl)cyclobutyl)phenyl)-3-methyl-7-(((1-methylcyclopropyl)amino)methyl)-1H-pyrrolo[3,2-b]pyridine-5-carboxamide], the results for the IC50 on Cbl (aa49-434) and on Cbl-b (aa36-427) were 8.8 nM and 1.4 nM, respectively.
As to `Cc1c[nH]c2c(CN3CC[C@H](F)[C@H](C)C3)cc(C(=O)Nc3cccc([C@]4(c5nncn5C)C[C@@H](C)C4)c3)nc12` [Compound B34, 7-(((3R,4S)-4-fluoro-3-methylpiperidin-1-yl)methyl)-3-methyl-N-(3-((1s,3S)-3-methyl-1-(4-methyl-4H-1,2,4-triazol-3-yl)cyclobutyl)phenyl)-1H-pyrrolo[3,2-b]pyridine-5-carboxamide], the results for the IC50 on Cbl (aa49-434) and on Cbl-b (aa36-427) were 5.5 nM and 1.6 nM, respectively.
In the case of `Cn1cnnc1[C@]1(c2cncc(NC(=O)c3cc(CNCC4CCC4)c4c(n3)C(F)(F)CC4)c2)C[C@H](C)C1` [Compound C52, 4-{[(cyclobutylmethyl)amino]methyl}-7,7-difluoro-N-{5-[(1r, 3s)-3-methyl-1-(4-methyl-1,2,4-triazol-3-yl)cyclobutyl]pyridin-3-yl}-5H,6H-cyclopenta[b]pyridine-2-carboxamide], the values for the IC50 at Cbl (aa49-434) and on Cbl-b (aa36-427) were 14.8 nM and 3.3 nM, respectively.
On to `Cn1cnnc1[C@]1(c2cccc(NC(=O)c3cc(CNC4(C)CC4)c4[nH]ccc4n3)c2)C[C@H](CC#N)C1` [Compound B26, N-(3-((1s, 3s)-3-(cyanomethyl)-1-(4-methyl-4H-1,2,4-triazol-3-yl)cyclobutyl)phenyl)-7-(((1-methylcyclopropyl)amino)methyl)-1H-pyrrolo[3,2-b]pyridine-5-carboxamide], for which the IC50 worked out at 4.1 nM on Cbl (aa49-434) and 1.3 nM at Cbl-b (aa36-427).
As to `Cn1cnnc1[C@]1(c2cccc(NC(=O)c3cc(CNCC4CCCC4)cn4ccnc34)c2)C[C@H](CC#N)C1` [Compound A26, N-(3-((1s, 3s)-3-(cyanomethyl)-1-(4-methyl-4H-1,2,4-triazol-3-yl)cyclobutyl)phenyl)-6-(((cyclopentylmethyl)amino)methyl)imidazo[1,2-a]pyridine-8-carboxamide], the IC50 amounted to 6.3 nM on Cbl (aa49-434) and 1.3 nM at Cbl-b (aa36-427).
In the case of `Cn1cnnc1[C@]1(c2cccc(NC(=O)c3cc(CNC4(C)CC4)c4[nH]cc(F)c4n3)c2)C[C@H](CC#N)C1` [Compound B54, N-(3-((1s, 3s)-3-(cyanomethyl)-1-(4-methyl-4H-1,2,4-triazol-3-yl)cyclobutyl)phenyl)-3-fluoro-7-(((1-methylcyclopropyl)amino)methyl)-1H-pyrrolo[3,2-b]pyridine-5-carboxamide], the IC50 stood at 12 nM at Cbl (aa49-434) and 1.2 nM at Cbl-b (aa36-427).
For the molecule `Cn1cnnc1[C@]1(c2cccc(NC(=O)c3cc(CNC4(C)CCC4)cn4ccnc34)c2)C[C@H](CC#N)C1` [Compound A36, N-(3-((1s, 3s)-3-(cyanomethyl)-1-(4-methyl-4H-1,2,4-triazol-3-yl)cyclobutyl)phenyl)-6-(((1-methylcyclobutyl)amino)methyl)imidazo[1,2-a]pyridine-8-carboxamide compound with N-(3-((1s, 3s)-3-(cyanomethyl)-1-(4-methyl-4H-1,2,4-triazol-3-yl)cyclobutyl)phenyl)-6-formylimidazo[1,2-a]pyridine-8-carboxamide (1:1)], the IC50 came out at 16 nM at Cbl (aa49-434) and 1.7 nM at Cbl-b (aa36-427).
As for `C[C@H](NCc1cc(C(=O)Nc2cccc([C@]3(c4nncn4C)C[C@@H](CC#N)C3)c2)nc2c1CCC2(C)C)C1CC1` [Compound C39, N-(3-((1s,3R)-3-(cyanomethyl)-1-(4-methyl-4H-1,2,4-triazol-3-yl)cyclobutyl)phenyl)-4-((((S)-1-cyclopropylethyl)amino)methyl)-7,7-dimethyl-6,7-dihydro-5H-cyclopenta[b]pyridine-2-carboxamide], the IC50 on Cbl (aa49-434) stood at 2.9 nM; on Cbl-b (aa36-427), 0.8 nM.
Consider `Cn1cnnc1[C@]1(c2cccc(NC(=O)c3cc(CNC4CCCCCC4)c4c(n3)C(C)(C)CC4)c2)C[C@H](CC#N)C1` [Compound C54, N-(3-((1s, 3s)-3-(cyanomethyl)-1-(4-methyl-4H-1,2,4-triazol-3-yl)cyclobutyl)phenyl)-4-((cycloheptylamino)methyl)-7,7-dimethyl-6,7-dihydro-5H-cyclopenta[b]pyridine-2-carboxamide], for which the IC50 at Cbl (aa49-434) was determined as 6.8 nM; on Cbl-b (aa36-427) it was 1.3 nM.
For the molecule `Cn1cnnc1[C@]1(c2cccc(NC(=O)c3cc(CNC4(C)CC4)cn4ccnc34)c2)C[C@H](CC#N)C1` [Compound A25, N-(3-((1s, 3s)-3-(cyanomethyl)-1-(4-methyl-4H-1,2,4-triazol-3-yl)cyclobutyl)phenyl)-6-(((1-methylcyclopropyl)amino)methyl)imidazo[1,2-a]pyridine-8-carboxamide], the IC50 was found to be 10.5 nM on Cbl (aa49-434) and 1.5 nM on Cbl-b (aa36-427).
`C[C@H]1CCCN(Cc2cc(C(=O)Nc3cccc(C4(Cc5nncn5C)COC4)c3)nc3cc[nH]c23)C1` [Compound B6, (S)—N-(3-(3-((4-methyl-4H-1,2,4-triazol-3-yl)methyl)oxetan-3-yl)phenyl)-7-((3-methylpiperidin-1-yl)methyl)-1H-pyrrolo[3,2-b]pyridine-5-carboxamide]: the IC50 at Cbl (aa49-434) was determined as 6.9 nM; at Cbl-b (aa36-427), 4 nM.
On the same counts, the results for `C[C@H](NCc1cc(C(=O)Nc2cncc([C@]3(c4nncn4C)C[C@@H](C)C3)c2)nc2cc[nH]c12)C1CCC1` [Compound B43, 7-({[(1S)-1-cyclobutylethyl]amino}methyl)-N-{5-[(1r, 3s)-3-methyl-1-(4-methyl-1,2,4-triazol-3-yl)cyclobutyl]pyridin-3-yl}-1H-pyrrolo[3,2-b]pyridine-5-carboxamide] are 0.6 nM and 0.6 nM.

Values taken from patent publication US20250163047A1, “HETEROCYCLIC COMPOUNDS, COMPOSITIONS THEREOF, AND METHODS OF TREATMENT THEREWITH” (BeiGene, Ltd., priority 2022, published 2025).
